# Measurements taken from patent US20240287052A1, “NOVEL OXAZOLE DERIVATIVE AND PHARMACEUTICAL COMPOSITION FOR PREVENTING OR TREATING ALLERGIC DISEASES COMPRISING THE SAME” (AZCURIS CO., LTD., priority 2021, published 2024).
# Where two headings read alike, the source gives them in different places.
# Biological target: T1, IL33 and ST2 binding (Homo sapiens, UniProt O95760)
# T1 sequence (O95760 112-270 limits assumed): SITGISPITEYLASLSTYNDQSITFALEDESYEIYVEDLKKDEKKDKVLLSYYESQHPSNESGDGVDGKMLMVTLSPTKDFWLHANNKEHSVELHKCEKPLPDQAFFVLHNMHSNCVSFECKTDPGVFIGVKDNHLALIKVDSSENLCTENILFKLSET
# 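Note: plate ELISA with coated Flag-tagged human IL-33 and His-tagged human ST2, bound ST2 detected by anti-His HRP and TMB absorbance at 450 nm, 2 h compound incubation.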
# Procedure: 100 nM of Flag tagged IL-33 human recombinant protein was prepared in 1× coating buffer (Biolegend) and placed in a 96 well microplate (Coming) using a Multichannel pipette (Gilson) and coated for at least 12 hours at 4° C.
# After washing three times with PBST (1×PBS (Welgene), 1% Tween 20 (sigma)), it was reacted with 1% BSA (Bovogen) blocking buffer for 1 hour at room temperature.
# Samples containing 200 nM of His-tagged ST2 human recombinant protein and 60 μM or 200 μM Example synthetic compounds were prepared, added in equal volumes, and reacted for at least 2 hours at room temperature.
# After washing three times with PBST (1×PBS (Welgene), 1% Tween 20 (sigma)), anti-His HRP (BioLegend) antibody was diluted 5000:1 and reacted for at least 1 hour at room temperature.
# After washing three times with PBST (1×PBS (Welgene), 1% Tween 20 (sigma)), TMB substrate solution (Thermo) was added and reacted for more than 5 minutes. The reaction was stopped by adding 1 N HCl (Samchun) and the absorbance value was obtained at 450 nm after orbital shaking for 5 s with a Microplate reader (Tecan, Spark®).
# The results derived from the program linked to the microplate reader were analyzed using an Excel program. IL33-ST2 binding rate (binding %) was calculated by averaging the three values obtained in triplicate, subtracting the positive control value, and converting the negative control value to 100%. The inhibition % value of each compound was obtained by subtracting the IL33-ST2 binding % from 100%, and the error range of triplicate was also obtained and reflected in the inhibition graph of the compound.
Compound,inhibition (30 µM) [%],inhibition (100 µM) [%]
"COc1ccc(-c2nc(C(=O)N3CCN(CCN(C)C)CC3)c(-c3ccccc3[N+](=O)[O-])o2)cc1 [Compound 216, (4-(2-(Dimethylamino)ethyl)piperazin-1-yl)(2-(4-methoxyphenyl)-5-(2-nitrophenyl)oxazol-4-yl)methanone]",46,84
"COc1ccc(-c2nc(C(=O)N3CCN(CCN(C)C)CC3)c(-c3ccc([N+](=O)[O-])cc3)o2)cc1 [Compound 218, (4-(2-(Dimethylamino)ethyl)piperazin-1-yl)(2-(4-methoxyphenyl)-5-(4-nitrophenyl)oxazol-4-yl)methanone]",32,39
"COc1ccc(-c2nc(C(=O)NCCN3CCN(C)CC3)c(-c3ccc([N+](=O)[O-])cc3)o2)cc1 [Compound 219, 2-(4-methoxyphenyl)-N-(2-(4-methylpiperazin-1-yl)ethyl)-5-(4-nitrophenyl)oxazole-4-carboxamide]",11,44
"CN(C)CCNC(=O)c1nc(-c2cccc(F)c2)oc1-c1ccccc1 [Compound 220, N-(2-(Dimethylamino)ethyl)-2-(3-fluorophenyl)-5-phenyloxazole-4-carboxamide]",-2,-14
"CN1CCN(CCNC(=O)c2nc(-c3cccc(F)c3)oc2-c2ccccc2)CC1 [Compound 221, 2-(3-Fluorophenyl)N-(2-(4-methylpiperazin-1-yl)ethyl)-5-phenyloxazole-4-carboxamide]",-34,-21
"CN(C)CCNC(=O)c1nc(-c2cccc(F)c2)oc1-c1ccccc1[N+](=O)[O-] [Compound 222, N-(2-(Dimethylamino)ethyl)-2-(3-fluorophenyl)-5-(2-nitrophenyl)oxazole-4-carboxamide]",-28,-16
"CN1CCN(CCNC(=O)c2nc(-c3cccc(F)c3)oc2-c2ccccc2[N+](=O)[O-])CC1 [Compound 223, 2-(3-Fluorophenyl)-N-(2-(4-methylpiperazin-1-yl)ethyl)-5-(2-nitrophenyl)oxazole-4-carboxamide]",29,38
"CN(C)CCNC(=O)c1nc(-c2ccc(F)cc2)oc1-c1ccccc1 [Compound 224, N-(2-(Dimethylamino)ethyl)-2-(4-fluorophenyl)-5-phenyloxazole-4-carboxamide]",-13,-18
"CN1CCN(CCNC(=O)c2nc(-c3ccc(F)cc3)oc2-c2ccccc2)CC1 [Compound 225, 2-(4-Fluorophenyl)-N-(2-(4-methylpiperazin-1-yl)ethyl)-5-phenyloxazole-4-carboxamide]",-6,7
"CN(C)CCNC(=O)c1nc(-c2ccc(F)cc2)oc1-c1ccccc1[N+](=O)[O-] [Compound 226, N-(2-(Dimethylamino)ethyl)-2-(4-fluorophenyl)-5-(2-nitrophenyl)oxazole-4-carboxamide]",-25,-8
"CN1CCN(CCNC(=O)c2nc(-c3ccc(F)cc3)oc2-c2ccccc2[N+](=O)[O-])CC1 [Compound 227, 2-(4-Fluorophenyl)-N-(2-(4-methylpiperazin-1-yl)ethyl)-5-(2-nitrophenyl)oxazole-4-carboxamide]",-22,-28
"CN(C)CCN1CCN(C(=O)c2nc(-c3ccc(F)cc3)oc2-c2ccccc2[N+](=O)[O-])CC1 [Compound 228, (4-(2-(Dimethylamino)ethyl)piperazin-1-yl)(2-(4-fluorophenyl)-5-(2-nitrophenyl)oxazol-4-yl)methanone]",24,43
"CN(C)CCNC(=O)c1nc(-c2ccc(F)cc2)oc1-c1ccc([N+](=O)[O-])cc1 [Compound 229, N-(2-(Dimethylamino)ethyl)-2-(4-fluorophenyl)-5-(4-nitrophenyl)oxazole-4-carboxamide]",-54,-98
"CN1CCN(CCNC(=O)c2nc(-c3ccc(F)cc3)oc2-c2ccc([N+](=O)[O-])cc2)CC1 [Compound 230, 2-(4-Fluorophenyl)-N-(2-(4-methylpiperazin-1-yl)ethyl)-5-(4-nitrophenyl)oxazole-4-carboxamide]",15,0
"CN1CCN(CCNC(=O)c2nc(-c3ccc(F)c(F)c3)oc2-c2ccccc2)CC1 [Compound 232, 2-(3,4-Difluorophenyl)-N-(2-(4-methylpiperazin-1-yl)ethyl)-5-phenyloxazole-4-carboxamide]",-9,3
"CN(C)CCNC(=O)c1nc(-c2ccc(F)c(F)c2)oc1-c1ccccc1[N+](=O)[O-] [Compound 233, 2-(3,4-Difluorophenyl)-N-(2-(dimethylamino)ethyl)-5-(2-nitrophenyl)oxazole-4-carboxamide]",-27,-27
"CN1CCN(CCNC(=O)c2nc(-c3ccc(F)c(F)c3)oc2-c2ccccc2[N+](=O)[O-])CC1 [Compound 234, 2-(3,4-Difluorophenyl)-N-(2-(4-methylpiperazin-1-yl)ethyl)-5-(2-nitrophenyl)oxazole-4-carboxamide]",13,19

Compound,inhibition (30 µM) [%],inhibition (100 µM) [%]
"CN(C)CCNC(=O)c1nc(-c2cc(F)cc(F)c2)oc1-c1ccccc1 [Compound 235, 2-(3,5-Difluorophenyl)-N-(2-(dimethylamino)ethyl)-5-phenyloxazole-4-carboxamide]",3,36
"CN1CCN(CCNC(=O)c2nc(-c3cc(F)cc(F)c3)oc2-c2ccccc2)CC1 [Compound 236, 2-(3,5-Difluorophenyl)-N-(2-(4-methylpiperazin-1-yl)ethyl)-5-phenyloxazole-4-carboxamide]",-8,-7
"CN(C)CCNC(=O)c1nc(-c2cc(F)cc(F)c2)oc1-c1ccccc1[N+](=O)[O-] [Compound 237, 2-(3,5-Difluorophenyl)-N-(2-(dimethylamino)ethyl)-5-(2-nitrophenyl)oxazole-4-carboxamide]",-34,-16
"CN1CCN(CCNC(=O)c2nc(-c3cccc(Cl)c3)oc2-c2ccccc2)CC1 [Compound 241, 2-(3-Chlorophenyl)-N-(2-(4-methylpiperazin-1-yl)ethyl)-5-phenyloxazole-4-carboxamide]",31,38
"CN(C)CCNC(=O)c1nc(-c2cccc(Cl)c2)oc1-c1ccccc1[N+](=O)[O-] [Compound 242, 2-(3-Chlorophenyl)-N-(2-(dimethylamino)ethyl)-5-(2-nitrophenyl)oxazole-4-carboxamide]",-14,-12
"CN1CCN(CCNC(=O)c2nc(-c3cccc(Cl)c3)oc2-c2ccccc2[N+](=O)[O-])CC1 [Compound 243, 2-(3-chlorophenyl)-N-(2-(4-methylpiperazin-1-yl)ethyl)-5-(2-nitrophenyl)oxazole-4-carboxamide]",14,-6
"CN(C)CCNC(=O)c1nc(-c2ccc(Cl)cc2)oc1-c1ccccc1 [Compound 244, 2-(4-Chlorophenyl)-N-(2-(dimethylamino)ethyl)-5-phenyloxazole-4-carboxamide]",0,38
"CN1CCN(CCNC(=O)c2nc(-c3ccc(Cl)cc3)oc2-c2ccccc2)CC1 [Compound 245, 2-(4-Chlorophenyl)-N-(2-(4-methylpiperazin-1-yl)ethyl)-5-phenyloxazole-4-carboxamide]",15,26
"CN1CCN(CCNC(=O)c2nc(-c3ccc(Cl)cc3)oc2-c2ccccc2[N+](=O)[O-])CC1 [Compound 247, 2-(4-Chlorophenyl)-N-(2-(4-methylpiperazin-1-yl)ethyl)-5-(2-nitrophenyl)oxazole-4-carboxamide]",8,32
"CN1CCN(CCNC(=O)c2nc(-c3ccc(C#N)cc3)oc2-c2ccccc2)CC1 [Compound 250, 2-(4-Cyanophenyl)-N-(2-(4-methylpiperazin-1-yl)ethyl)-5-phenyloxazole-4-carboxamide]",14,9
"CN(C)CCNC(=O)c1nc(-c2ccc(C#N)cc2)oc1-c1ccccc1[N+](=O)[O-] [Compound 251, 2-(4-Cyanophenyl)-N-(2-(dimethylamino)ethyl)-5-(2-nitrophenyl)oxazole-4-carboxamide]",-6,-21
"CN1CCN(CCNC(=O)c2nc(-c3ccc(C#N)cc3)oc2-c2ccccc2[N+](=O)[O-])CC1 [Compound 252, 2-(4-Cyanophenyl)-N-(2-(4-methylpiperazin-1-yl)ethyl)-5-(2-nitrophenyl)oxazole-4-carboxamide]",28,19
"CN(C)CCNC(=O)c1nc(-c2ccc(-c3ccccc3)cc2)oc1-c1ccccc1 [Compound 253, 2-([1,1′-Biphenyl]-4-yl)-N-(2-(dimethylamino)ethyl)-5-phenyloxazole-4-carboxamide]",11,60
"CN1CCN(CCNC(=O)c2nc(-c3ccc(-c4ccccc4)cc3)oc2-c2ccccc2)CC1 [Compound 254, 2-([1,1′-Biphenyl]-4-yl)-N-(2-(4-methylpiperazin-1-yl)ethyl)-5-phenyloxazole-4-carboxamide]",-20,11
"CN(C)CCNC(=O)c1nc(-c2ccc(-c3ccccc3)cc2)oc1-c1ccccc1[N+](=O)[O-] [Compound 255, 2-([1,1′-Biphenyl]-4-yl)-N-(2-(dimethylamino)ethyl)-5-(2-nitrophenyl)oxazole-4-carboxamide]",-10,1
"CN1CCN(CCNC(=O)c2nc(-c3ccc(-c4ccccc4)cc3)oc2-c2ccccc2[N+](=O)[O-])CC1 [Compound 256, 2-([1,1′-Biphenyl]-4-yl)-N-(2-(4-methylpiperazin-1-yl)ethyl)-5-(2-nitrophenyl)oxazole-4-carboxamide]",3,49
